From patent US20160256535A1, “HEXAPEPTIDE AND USES THEREOF” (priority 2013, published 2016)
Primed or numbered codes have the meaning given here. No end group written: not given here. FITC′ = not defined here

Legend:
MCF-7 cells = assay: Internalization of fluoresceinated hexapeptide by confocal and fluorescence microscopy; assay type: cell-based, human; conditions: for internalization by confocal microscopy: 0.125 μM, 3 hr
Method: The confocal analysis was performed by placing the cells of human breast cancer (MCF-7, ATCC HTB-22) on suitable slides (MatTek, Ashland Corporation MA, U.S.). The hexapaptide to the concentration of 0.125 μM was then added to the cells.
The protocol used for the internalization of the PEP-6 FAM includes two separate experiments. A first experiment was done using PEP 6-FAM to 92 μM for 3 hr and the internalization was assessed. To these cells, already treated with PEP6-FAM, primary Ab anti-PEP 24 1:20 overnight at 4° C. was added and, as secondary antibody goat anti rabbit fluorescent CF 488A; and to 1 plate, already treated with PEP6 FAM, it was added the primary antibody anti rMnSOD 1:20 overnight and the secondary CF555 rodamynated donkey anti sheep. For 45 min-1 hr.
In the second experiment, the PEP 6-FAM was used at 92 μM to 1 hr and 3 hr with fixation in ethanol and paraformaldehyde, and for both times it was assessed the penetration alone, without the addition of the antibody and with the addition of primary antibody anti rMnSOD with three different dilutions (1500-1:1000-1:2000) in 5% NGS (Normal Goat Serum) in PBS +0.1% Triton overnight at 4° C. and, the secondary antibody anti rhodium CF 555 sheep 1:400 for 45′-1 hr. The nuclei were subsequently stained with 10 μg for ml^−1 DAPI (4′,6-diamidin-2-phenylindole, LIFE™ Thencologies).

cells = assay: Ability of hexapeptide conjugated to fluorescein to enter cells (immunocytochemistry); assay type: cell-based; conditions: immunocytochemistry examination
Excerpt: The test results are positive and confirms the previous data.

Human Normal Lymphocytes = assay: Lymphocyte penetration, immunocytochemistry / immunofluorescence; assay type: cell-based
Method: Human Normal Lymphocytes cells were collected from healthy donors and purified using Ficoll Hystopaque density gradient centrifugation. The cells were cultured at a density of 1×10^6 cells/mL in RPMI media supplemented with 1% Penstrep and 10% FBS in a humidified atmosphere containing 5% CO2 at 37° C.
(§1) A cytospin was used to smear cells onto slides. The smears were fixed in Zamboni solution (4% paraformaldehyde, 15% picric acid) for 60 minutes and then washed with 1×PBS and incubated for five minutes with 3% hydrogen peroxide to quench endogenous peroxidase activity. Immunostaining was performed using the DAKO LSA+System HRP kit. Rabbit anti-rMnSOD-Lp (1:200), was incubated on slides for 30 minutes, followed by incubation with the biotinylated secondary antibody for 30 minutes and peroxidase-labeled streptavidin for 30 minutes. To complete the reaction, a substrate-chromogen solution was used. The smears were counterstained with hematoxylin.

white blood cells = assay: White blood cell penetration, immunocytochemistry at light microscopy; assay type: cell-based, human; conditions: healthy subject
Method: as §1, with “Lymphocytes were incubated for five hours in the presence of fluorescinated Hexapeptide 92 μM. A cytospin” for “A cytospin”

Jurkat cells = assay: Jurkat cell penetration, immunofluorescence; assay type: cell-based, human; conditions: 92 μM, 3 h
Method: Jurkat cells (ATTC, UK) were seeded at density of 150000 cells/well in RPMI media supplemented with 1% Penstrep and 10% FBS in a humidified atmosphere containing 5% CO2 at 37°. The next day, the cells were incubated with 92 μM AVCGTG (SEQ ID NO. 1)-FITC for 3 h in multiwell 24. Subsequently, a cytospin was used to smear cells onto slides. The smears were fixed with 4% paraformaldehyde/PBS for 10 min and rinsed twice with 1×PBS containing 0.1% Triton to remove traces of fixative. Cell samples without AVCGTG (SEQ ID NO. 1)-FITC were used for the background control. After blocking solution with 5% NGS (Normal Goat Serum, VECTOR) 1×PBS+0,1% Triton X-100, was added for 30 minutes. After removing the blocking solution, cells were incubated with primary antibody hexapeptide, diluted 1:200 in blocking solution, overnight at 4° C. The following day, after washing with lx PBS and 0.1% Triton X-100 for 10 minutes, secondary antibody (ALEXA FLUO 488A, SANTACRUZ) diluted 1:400 with 1×PBS and 0.1% Triton X-100 for 2 h was added. The excess of antibody was removed with 3 washes with 1×PBS.
Nuclei were stained with DAPI (1 μg/mL). The slides were mounted and stored in the dark at 4° C. and then observed by fluorescence microscope ZEISS HB050 by using the software Axion Vision Re1.4.8.

sperm = assay: Sperm fluorescence microscopy with propidium iodide; assay type: cell-based, bovine; conditions: 1 mg/ml, 37° C., 1 hour; sperm without red (propidium iodide) fluorescence
Method: Three fresh ejaculate from bovine, obtained from two different bulls, were mixed and diluted in Tris solution with a concentration of 100×10^6 sperm/ml, incubated at 37° C. for 1 hour in the presence of 1 mg/ml of FITC-rMnSOD-LP (hexapeptide) and 1 mg/ml of propidium iodide.
The peptide also enters in the sperm with a non-intact membrane. These sperm must not to be taken into consideration in the penetration study because if the membrane is broken, its permeability is not selective. The hexapeptide enters even in the dead, but for normal diffusion, not for selective activity of intact membranes.

For “AVCGTG (SEQ ID NO. 1)-FITC (AVCGTG-{FITC′})”, which “penetration by fluorescence optical microscopy” value (MCF-7 cells) is on record?
The value was “penetrates into the MCF-7 breast cancer cells”.

What about the “internalization by confocal microscopy” value (MCF-7 cells; listed as FITC-PEP) of the same substance?
The value was “internalized into the cytoplasm”.

And the “internalization by confocal microscopy” value (MCF-7 cells; listed as FTC-peptide)?
The value was “internalized in the cytoplasm”.

And the “penetration into the cells” value (cells)?
Its value is “penetrates into the cells”.

What about the internalization in lymphocytes (Human Normal Lymphocytes; 3 hour incubation) of the same substance?
Its internalization in lymphocytes is “most cells internalized”.

What about the “percentage of labeled cells” value (Human Normal Lymphocytes; lymphocytes, 92 μM, 3 hours) of the same substance?
The value was 95%.

And the “penetration into white blood cells” value (white blood cells)?
The value was “penetrates in white blood cells”.

And the “penetration into Jurkat cells” value (Jurkat cells)?
The value was “penetrates in Jurkat cells”.

And the “viable sperm showing green fluorescence in the mid piece of the tail” value (sperm)?
Its value is 100%.
